PubChem BioAssay AID743073 (Broad Institute, 2013)
Active and inactive are the calls of the source. No rule for the calls is given here.

Test system: M. tuberculosis BioA-TetON overexpression strain, growth inhibition
Experiment: PubChem AID 743073
Settings: for IC90: IC90 growth inhibition

Row | SMILES | IC50 | IC90 [µM]
1 | Cc1cc(C)n2nc(C(=O)Nc3cccnc3)cc2n1 | > 50 µM (inactive) | > 50
2 | COc1cc(/C=C/C(=O)Nc2cccnc2)cc(OC)c1OC | > 50 µM (inactive) | > 50
3 | CC(=O)c1ccc(N2CCN(C(=O)c3ccc4ncsc4c3)CC2)cc1 | > 50 µM (inactive) | > 50
4 | CCOC(=O)N1CCN(C(=O)Nc2ccc3snnc3c2)CC1 | > 50 µM (inactive) | > 50
5 | CC(=O)c1ccc(N2CCN(C(=O)c3ccc(F)cc3)CC2)cc1 | > 50 µM (inactive) | > 50
6 | COc1ccc(NC(=O)N2CCN(c3ccccc3)CC2)cc1 | > 50 µM (inactive) | > 50
7 | COC(=O)c1c(C(=O)OC)c(-c2cccc(F)c2)n2c1CS(=O)C2 (stereo not given) | > 50 µM (inactive) | > 50
8 | Cc1ccccc1/C=C(\CCC(=O)O)c1nc2ccccc2s1 | 6.5 µM | 43.5
9 | Cc1nc2ccc(NC(=O)N3CCN(c4ccccc4)CC3)cc2s1 | 2.8 µM | 23.6
10 | Cc1ccc(-c2cc(C(F)(F)F)n3nc(C(=O)Nc4cccnc4)cc3n2)cc1 | > 50 µM (inactive) | > 50
11 | Cc1ccc(/C=C(\CCC(=O)O)c2nc3ccccc3s2)cc1 | 1.7 µM | 5.8
12 | CCN(CC)c1ccc2cc(C(=O)c3cccs3)c(=O)oc2c1 | 6.4 µM | > 50
13 | O=C(Nc1ccc2snnc2c1)N1CCOCC1 | > 50 µM (inactive) | > 50
14 | CC(=O)c1ccc(N2CCN(C(=O)c3ccc(Br)cc3)CC2)c(F)c1 | > 50 µM (inactive) | > 50
15 | COc1cccc(NC(=O)N2CCN(c3ccccc3)CC2)c1 | 50 µM | > 50
16 | O=C(O)CC/C(=C\c1ccccc1[N+](=O)[O-])c1nc2ccccc2s1 | > 50 µM (inactive) | > 50
17 | O=C(Nc1ccc(Cl)cc1)c1cc2nc(C3CC3)cc(C(F)(F)F)n2n1 | > 50 µM (inactive) | > 50
18 | O=C(Nc1cccnc1)c1cnn2c(C(F)(F)F)cc(-c3ccccc3)nc12 | > 50 µM (inactive) | > 50
19 | O=C(c1ccc2c(c1)OCO2)N1CCN(c2ccc(F)cc2)CC1 | 28.3 µM | > 50
20 | O=C(Nc1ccc2snnc2c1)N1CCCCC1 | 50 µM | > 50

Row | SMILES | IC50 | IC90 [µM]
21 | CC(C)(C)c1ccc(C(=O)N2CCN(c3ccc4c(c3)OCO4)CC2)cc1 | 13.1 µM | 36.9
22 | O=C(Nc1cccc(F)c1)N1CCN(c2ccccc2)CC1 | 12.8 µM | > 50
23 | Cc1ccc(/C=C(\CC(=O)O)c2nc3ccccc3s2)cc1[N+](=O)[O-] | 11.7 µM | > 50
24 | CC(=O)c1ccc(N2CCN(Cc3ccc4c(c3)OCO4)CC2)cc1 | > 50 µM (inactive) | > 50
25 | O=C(Nc1cccnc1)c1cnn2c(C(F)F)cc(C3CC3)nc12 | > 50 µM (inactive) | > 50
26 | CC(=O)c1ccc(N2CCN(C(=O)c3ccccc3)CC2)cc1 | > 50 µM (inactive) | > 50
27 | O=C(Nc1ccncc1)c1cc2nc(C3CC3)cc(C(F)F)n2n1 | > 50 µM (inactive) | > 50
28 | COc1ccc(N2CCN(C(=O)c3ccc4c(c3)OCO4)CC2)cc1 | 17.6 µM | > 50
29 | CC(=O)c1ccc(N2CCN(C(=O)c3ccc4c(c3)OCCO4)CC2)cc1 | > 50 µM (inactive) | > 50
30 | Cc1cc(C)n2nc(C(=O)Nc3cccnc3)nc2n1 | > 50 µM (inactive) | > 50
31 | O=C(Nc1cccc(Cl)c1)N1CCN(c2ccccc2)CC1 | 25.4 µM | > 50
32 | COc1cccc(NC(=O)CCC2CCN(C(=O)c3ccc(C(C)=O)s3)CC2)c1 | > 50 µM (inactive) | > 50
33 | Cc1ccc(/C=C(\CCCC(=O)O)c2nc3ccccc3s2)cc1[N+](=O)[O-] | 5.6 µM | > 50
34 | Cc1nc2cc(NC(=O)N3CCN(c4ccccc4)CC3)ccc2o1 | 50 µM | > 50
35 | CC(=O)c1ccc(N2CCN(C(=O)c3cccc(F)c3)CC2)cc1 | > 50 µM (inactive) | > 50
36 | O=C(Nc1ccc2snnc2c1)N1CCN(c2ccccc2)CC1 | > 50 µM (inactive) | > 50
37 | Cc1ccc(/C=C(\CCC(=O)O)c2nc3ccccc3s2)cc1[N+](=O)[O-] | 1.5 µM | 4.7
38 | CC(=O)c1ccc(N2CCN(C(=O)c3cccc(Cl)c3)CC2)cc1 | 44.3 µM (inactive) | > 50
39 | CC(=O)c1ccc(N2CCN(C(=O)c3ccc(C)cc3)CC2)cc1 | > 50 µM (inactive) | > 50
40 | CC(=O)c1ccc(N2CCN(C(=O)c3ccc4c(c3)OCO4)CC2)cc1 | 52 µM (inactive) | > 50

Row | SMILES | IC50 | IC90 [µM]
41 | Cc1cccc(/C=C(\CCC(=O)O)c2nc3ccccc3s2)c1 | 3.1 µM | 9
42 | CC(=O)c1ccc(N2CCN(C(=O)c3cccnc3)CC2)cc1 | > 50 µM (inactive) | > 50
43 | Cc1ccc(NC(=O)N2CCN(c3ccccc3)CC2)cc1 | 50 µM | > 50
44 | COc1ccc(C(=O)N2CCN(c3ccc(C(C)=O)cc3)CC2)cc1 | > 50 µM (inactive) | > 50
45 | O=C(Nc1ccc(F)cc1)N1CCN(c2ccccc2)CC1 | 19.3 µM | > 50
46 | CCc1ccc(N2CCN(C(=O)c3ccc4c(c3)OCO4)CC2)cc1 | 16.1 µM | > 50
47 | O=C(c1ccc2c(c1)OCO2)N1CCN(c2ccc(Cl)cc2)CC1 | 11.6 µM | 47.2
48 | O=C(Nc1ccccc1)N1CCN(c2ccccc2)CC1 | 9.9 µM | > 50
49 | O=C(Nc1cccnc1)c1cc2nc(-c3cccs3)cc(C(F)(F)F)n2n1 | > 50 µM (inactive) | > 50
50 | O=C(c1ccc2c(c1)OCO2)N1CCN(c2ccccc2)CC1 | 24.4 µM | > 50
51 | O=C(Nc1ccc(Cl)c(-c2nc3ccccc3[nH]2)c1)c1cccnc1 | 10.3 µM | 39.5
52 | O=C(Nc1cccnc1)N1CCN(c2ccccc2)CC1 | > 50 µM (inactive) | > 50
53 | COc1cccc(C(=O)N2CCN(c3ccc(C(C)=O)cc3)CC2)c1 | > 50 µM (inactive) | > 50
54 | O=C(COc1ccc2ccc(=O)oc2c1)N1CCN(c2ccc(F)cc2)CC1 | > 50 µM (inactive) | > 50
55 | COc1ccc(-c2cc(C(F)(F)F)n3nc(C(=O)Nc4cccnc4)cc3n2)cc1 | > 50 µM (inactive) | > 50
56 | O=C(c1ccc2c(c1)OCO2)N1CCN(Cc2ccccc2)CC1 | > 50 µM (inactive) | > 50
57 | CC(=O)c1ccc(N2CCN(C(=O)c3ccc(Cl)cc3)CC2)cc1 | > 50 µM (inactive) | > 50
58 | O=C(O)CC/C(=C\c1ccc([N+](=O)[O-])cc1)c1nc2ccccc2s1 | 8.3 µM | 34.3
59 | O=C(Nc1ccc2[nH]ccc2c1)N1CCN(c2ccccc2)CC1 | 7 µM | > 50
60 | CCc1ccc(C(=O)N2CCN(Cc3ccc4c(c3)OCO4)CC2)cc1 | 11.2 µM | 47.2
